Test results as given in patent publication US5011836A, “Agents for the treatment of acute and chronic obstructive respiratory passage diseases” (Dr. Karl Thomae GmbH, priority 1988, dated 1991).
“Also recorded” adds a separate entry of the source.

Legend:
[1] = test system: effect of acetylcholine on bladder; test: Inhibition of the effect of acetylcholine on the bladder (contraction of the exposed bladder), anaesthetised guinea-pigs; assay type: in vivo; settings: Cavia porcellus, iv, 5 min; anaesthetised guinea-pig; 10 μg/kg acetylcholine i.v. and intraarterially 5 minutes after test substance; read-out: -log DE50 Bladder (converted)
Procedure: (§1) 5 minutes after administration of the test substance to anaesthetised guinea-pigs, 10 μg/kg of acetylcholine was injected intravenously and, at the same time, intraarterially. At the same time, the heart rate was recorded by extracorporeal derivation of the ECG, the respiratory passage resistance by Konzett-Rossler and the contraction of the exposed bladder directly. For the inhibition of the effect of acetylcholine on the organs examined, dosage-activity curves were recorded and -log ED50 values were determined therefrom.

[2] = biological target: T1, muscarinic receptors, submandible (M3) (Rattus norvegicus, UniProt P08483); test: Receptor binding test in vitro, 3H-N-methylscopolamine, submandible (M3); design: species or system Sprague-Dawley rat; settings: 0.3 nanomolar 3H-N-methylscopolamine, rat submandible homogenate, 30° C., 45 minutes, pH 7.4; read-out: IC50 3H-NMS Submandible (M3)
T1 construct: After removing the heart, submandible and cerebral cortex; from tissue; host or cells: Sprague-Dawley rat submandibular gland ('submandible') homogenate
T1 sequence (P08483 whole entry): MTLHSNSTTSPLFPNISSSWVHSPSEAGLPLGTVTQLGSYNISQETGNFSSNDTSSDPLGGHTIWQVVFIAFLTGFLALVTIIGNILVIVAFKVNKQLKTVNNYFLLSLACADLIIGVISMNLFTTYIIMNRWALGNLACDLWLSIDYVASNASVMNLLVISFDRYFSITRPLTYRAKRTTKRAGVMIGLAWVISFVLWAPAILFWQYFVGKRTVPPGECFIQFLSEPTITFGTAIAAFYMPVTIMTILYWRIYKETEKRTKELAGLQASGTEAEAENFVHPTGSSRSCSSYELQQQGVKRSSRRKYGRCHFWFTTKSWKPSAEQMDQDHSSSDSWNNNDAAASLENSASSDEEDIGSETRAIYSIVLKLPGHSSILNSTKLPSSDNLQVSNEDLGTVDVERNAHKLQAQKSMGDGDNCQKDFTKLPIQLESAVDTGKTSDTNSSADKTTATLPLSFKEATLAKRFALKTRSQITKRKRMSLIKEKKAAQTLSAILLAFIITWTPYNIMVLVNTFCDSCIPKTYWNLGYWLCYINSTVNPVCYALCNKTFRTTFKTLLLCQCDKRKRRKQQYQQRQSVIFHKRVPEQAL
Procedure: (§2) Sprague-Dawley rats having body weights of 180-220 g were used as organ donors. After removing the heart, submandible and cerebral cortex, all further steps were carried out in ice-cold Hepes-HCl buffer (pH 7.4; 100 m molar NaCl, 10 m molar MgCl2). The entire heart was comminuted using a pair of scissors. All organs were then homogenised in a Potter.
(§3) For the binding test, the organ homogenates were diluted in the following manner(ratio by volume):
(§4) The incubation of the organ homogenates was carried out at a defined concentration of the radioligand and a number of concentrations of the non-radioactive test substances in Eppendorf centrifuge tubes at 30° C. The incubation period was 45 minutes. 0.3 nanomolar ^3 H-N-methylscopolamine (^3 H-NMS, heart and submandible) or 1 nanomolar ^3 H-pirenzepine (^3 H-PZ, cerebrum) were used as the radioligand. The incubation was ended by addition of ice-cold buffer with subsequent vacuum filtration. The filter was washed with cold buffer and its radioactivity was determined. This represents the total of specific and non-specific binding of ^3 H-NMS or ^3 H-PZ. The proportion of non-specific binding was defined as that radioactivity which was bound in the presence of 1μ molar quinuclidinylbenzylate. Four-fold determinations were always carried out. The IC50 values of non-labelled test substances were determined graphically. They represent that concentration of the test substance at which the specific binding of ^3 H-NMS or ^3 H-PZ to the muscarinic receptors in the various organs was inhibited by 50%.

[3] = biological target: T2, muscarinic receptors, cortex (M1) (Rattus norvegicus, UniProt P08482); test: Receptor binding test in vitro, 3H-pirenzepine, cerebral cortex (M1); design: species or system Sprague-Dawley rat; settings: for IC50: 1 nanomolar 3H-pirenzepine, rat cerebral cortex homogenate, 30° C., 45 minutes, pH 7.4, read-out: IC50 3H-PZ Cortex (M1); for M1-selectivity in receptor binding studies (in words): cortex M1 compared to heart and submandible
T2 construct: After removing the heart, submandible and cerebral cortex; from tissue; host or cells: Sprague-Dawley rat cerebral cortex homogenate
T2 sequence (P08482 1-460): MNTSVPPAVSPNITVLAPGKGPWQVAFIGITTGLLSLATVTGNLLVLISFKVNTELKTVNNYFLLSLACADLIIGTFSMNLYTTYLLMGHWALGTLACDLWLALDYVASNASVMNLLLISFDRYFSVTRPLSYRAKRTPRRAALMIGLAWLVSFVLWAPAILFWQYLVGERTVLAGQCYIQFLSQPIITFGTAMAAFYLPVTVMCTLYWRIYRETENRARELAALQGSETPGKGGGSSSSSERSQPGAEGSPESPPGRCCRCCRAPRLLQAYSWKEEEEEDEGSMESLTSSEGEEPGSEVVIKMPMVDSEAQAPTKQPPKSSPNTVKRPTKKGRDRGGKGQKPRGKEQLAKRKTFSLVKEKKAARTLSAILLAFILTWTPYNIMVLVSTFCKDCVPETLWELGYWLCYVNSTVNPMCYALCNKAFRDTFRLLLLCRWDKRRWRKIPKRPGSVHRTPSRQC
Procedure: as §2, §3, §4

[4] = test system: effect of acetylcholine on bronchi; test: Inhibition of the effect of acetylcholine on the bronchi (respiratory passage resistance, Konzett-Rossler), anaesthetised guinea-pigs; assay type: in vivo, guinea-pig; settings: for ED50: Cavia porcellus, iv, 5 min, read-out: -log DE50 Bronchi; for selectivity of inhibition of acetylcholine-induced bronchoconstriction versus effects on heart and bladder (in words): bronchi compared to heart and bladder, guinea-pig
Procedure: as §1

[5] = biological target: T3, muscarinic receptors, heart (M2) (Rattus norvegicus, UniProt P10980); test: Receptor binding test in vitro, 3H-N-methylscopolamine, heart (M2); design: species or system Sprague-Dawley rat
T3 construct: After removing the heart, submandible and cerebral cortex; from tissue; host or cells: Sprague-Dawley rat entire heart homogenate
T3 sequence (P10980 1-466): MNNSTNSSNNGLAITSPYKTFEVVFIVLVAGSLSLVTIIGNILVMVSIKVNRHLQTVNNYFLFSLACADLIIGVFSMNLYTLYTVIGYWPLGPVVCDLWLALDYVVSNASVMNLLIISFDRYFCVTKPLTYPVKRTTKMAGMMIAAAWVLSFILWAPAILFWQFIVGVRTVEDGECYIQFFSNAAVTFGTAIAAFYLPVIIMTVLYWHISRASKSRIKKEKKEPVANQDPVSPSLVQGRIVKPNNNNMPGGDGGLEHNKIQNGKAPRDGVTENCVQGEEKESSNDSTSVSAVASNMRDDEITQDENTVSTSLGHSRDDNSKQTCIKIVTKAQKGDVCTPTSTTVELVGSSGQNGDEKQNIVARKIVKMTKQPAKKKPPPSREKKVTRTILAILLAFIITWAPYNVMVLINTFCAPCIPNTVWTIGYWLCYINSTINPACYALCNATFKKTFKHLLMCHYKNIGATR
Procedure: as §2, §3, §4

[6] = test system: effect of acetylcholine on heart rate; test: Inhibition of the effect of acetylcholine on the heart rate (ECG), anaesthetised guinea-pigs; assay type: in vivo; settings: Cavia porcellus, iv, 5 min, anaesthetised guinea-pig, 10 μg/kg acetylcholine i.v. and intraarterially 5 minutes after test substance, read-out: -log DE50 Heart (converted)
Procedure: as §1

Compound	ED50 [1]	IC50 [2]	IC50 [3]	M1-selectivity in receptor binding studies (in words) [3]	ED50 [4]	selectivity of inhibition of acetylcholine-induced bronchoconstriction versus effects on heart and bladder (in words) [4]	IC50 [5]	ED50 [6]
CN1CCC(NC(=O)C2c3ccccc3NC(=O)c3ccccc32)CC1 (racemic) [Substance A, 5,11-dihydro-11-[[(1-methyl-4-piperidinyl)amino]carbonyl]-6H-dibenz[b,e]azepin-6-one]	0.537 µmol/kg	70 nM	6 nM	marked M1 -selectivity; also recorded: lower IC50 values for the cortex M1 receptor compared to muscarinic receptors in preparations of the heart and submandible; also recorded: M1 -selectivity in in vitro receptor binding studies	0.055 µmol/kg	marked selectivity for the inhibition of the bronchoconstriction; also recorded: even at dosages at which no effects on the heart and bladder are observed; also recorded: more strongly inhibit the cholinergically induced bronchoconstriction in functional tests than frequency effects on the heart or the bladder contraction	400 nM	0.955 µmol/kg
CN1CCC(CC(=O)C2c3ccccc3NC(=O)c3ccccc32)CC1 (racemic) [Substance B, 5,11-dihydro-11-[(1-methyl-4-piperidinyl)acetyl]-6H-dibenz[b,e]azepin-6-one]	0.813 µmol/kg	13 nM	2.5 nM	marked M1 -selectivity; also recorded: lower IC50 values for the cortex M1 receptor compared to muscarinic receptors in preparations of the heart and submandible; also recorded: M1 -selectivity in in vitro receptor binding studies	0.182 µmol/kg	marked selectivity for the inhibition of the bronchoconstriction; also recorded: even at dosages at which no effects on the heart and bladder are observed; also recorded: more strongly inhibit the cholinergically induced bronchoconstriction in functional tests than frequency effects on the heart or the bladder contraction	42 nM	0.851 µmol/kg
CN1CCN(CC(=O)C2c3ccccc3NC(=O)c3ccccc32)CC1 (racemic) [Substance C, 5,11-dihydro-11-[(4-methyl-1-piperazinyl)acetyl]-6H-dibenz[b,e]azepin-6-one]	5.37 µmol/kg	100 nM	8 nM	marked M1 -selectivity; also recorded: lower IC50 values for the cortex M1 receptor compared to muscarinic receptors in preparations of the heart and submandible; also recorded: M1 -selectivity in in vitro receptor binding studies	0.275 µmol/kg	marked selectivity for the inhibition of the bronchoconstriction; also recorded: even at dosages at which no effects on the heart and bladder are observed; also recorded: more strongly inhibit the cholinergically induced bronchoconstriction in functional tests than frequency effects on the heart or the bladder contraction	800 nM	1.78 µmol/kg
CN1CCC(NC(=O)C2c3ccccc3NC(=O)c3ccccc32)CC1 (single isomer, unassigned; (+)) [Substance D, (+)-5,11-dihydro-11-[[(1-methyl-4-piperidinyl)amino]carbonyl]-6H-dibenz[b,e]azepin-6-one]	0.309 µmol/kg	50 nM	3 nM	marked M1 -selectivity; also recorded: lower IC50 values for the cortex M1 receptor compared to muscarinic receptors in preparations of the heart and submandible; also recorded: M1 -selectivity in in vitro receptor binding studies	0.0331 µmol/kg	even at dosages at which no effects on the heart and bladder are observed; also recorded: more strongly inhibit the cholinergically induced bronchoconstriction in functional tests than frequency effects on the heart or the bladder contraction	300 nM	0.407 µmol/kg
